# pEC50, pIC50, pKi: −log10 of the molar value. Where two headings read alike, the source gives them in different places.
# Columns and labels:
# [1] = target: Sigma-1 receptors on Jurkat cell membranes (Homo sapiens (Human), UniProt Q99720); test: Competitive Radioligand Binding Assay 1, Sigma-1 binding ([3H](+)pentazocine displacement); details: sigma-1 receptor affinity; read-out: S1 Ki
# Experimental: Certain compounds were tested for interaction with several receptors by blocking the binding or action of their agonists or antagonists. Some compounds were tested to see whether they interact directly with known cellular receptor or signaling proteins. Compounds can be tested for the ability to displace binding of known agonists or antagonists of a given human receptor that was overexpressed in cell lines or isolated from tissue. Compounds can also be tested for the ability to block downstream signaling induced by agonists or antagonists of a given human receptor. Compounds can be tested for action at 100 known receptors, and it is desirable that specific activity will occur at only a small subset of CNS-relevant receptors.
# For Sigma-1 binding, various concentrations of test compounds from 100 μM to 1 nM were used to displace 8 nM [3H](+)pentazocine from endogenous receptors on Jurkat cell membranes (Ganapathy M E et al. 1991, J Pharmacol. Exp. Ther. 289:251-260). 10 μM Haloperidol was used to define non-specific binding. […] (Bowen W D, et al. 1993, Mol. Neuropharmcol 3:117-126). 10 μM Haloperidol was used to define non-specific binding. Reactions were terminated by rapid filtration through Whatman GF/C filters using a Brandel 12R cell harvester followed by two washes with ice-cold buffer. Radioactivity on the dried filter discs was measured using a liquid scintillation analyzer (Tri-Carb 2900TR; PerkinElmer Life and Analytical Sciences). The displacement curves were plotted and the Ki values of the test compounds for the receptor subtypes were determined using GraphPad Prism (GraphPad Software Inc., San Diego, Calif.). The percentage specific binding was determined by dividing the difference between total bound (disintegrations per minute) and nonspecific bound (disintegrations per minute) by the total bound (disintegrations per minute). […]
# [2] = target: Sigma-2 receptors on membranes from rat cerebral cortex (Rattus norvegicus (Rat), UniProt Q5U3Y7); test: Competitive Radioligand Binding Assay 1, Sigma-2 binding ([3H]DTG displacement with (+)pentazocine mask); details: sigma-2 receptor affinity; read-out: S2 Ki
# Chain of Sigma-2 receptors on membranes from rat cerebral cortex (Q5U3Y7 whole entry): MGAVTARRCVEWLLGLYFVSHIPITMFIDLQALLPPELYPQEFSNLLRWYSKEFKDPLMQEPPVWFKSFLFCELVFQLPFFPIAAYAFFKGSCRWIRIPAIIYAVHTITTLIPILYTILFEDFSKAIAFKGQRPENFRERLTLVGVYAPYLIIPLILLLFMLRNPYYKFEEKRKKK
# Experimental: Using the same protocol, some compounds for which membrane trafficking data are given in Table 1 were tested for recognition of sigma-2 receptor. Certain compounds preferentially bind to the sigma-2 receptor.
# For Sigma-1 binding, various concentrations of test compounds from 100 μM to 1 nM were used to displace 8 nM [3H](+)pentazocine from endogenous receptors on Jurkat cell membranes (Ganapathy M E et al. 1991, J Pharmacol. Exp. Ther. 289:251-260). 10 μM Haloperidol was used to define non-specific binding. […] (Bowen W D, et al. 1993, Mol. Neuropharmcol 3:117-126). 10 μM Haloperidol was used to define non-specific binding. Reactions were terminated by rapid filtration through Whatman GF/C filters using a Brandel 12R cell harvester followed by two washes with ice-cold buffer. Radioactivity on the dried filter discs was measured using a liquid scintillation analyzer (Tri-Carb 2900TR; PerkinElmer Life and Analytical Sciences). The displacement curves were plotted and the Ki values of the test compounds for the receptor subtypes were determined using GraphPad Prism (GraphPad Software Inc., San Diego, Calif.). The percentage specific binding was determined by dividing the difference between total bound (disintegrations per minute) and nonspecific bound (disintegrations per minute) by the total bound (disintegrations per minute).
# Affinities for Sigma-1 and Sigma-2 receptors are typically obtained from published studies using cerebral tissue homogenates with [3H](+)pentazocine to measure displacement from Sigma-1 receptors and [3H] 1,3-Di-(2-tolyl)guanidine in the presence of 300 nM (+)pentazocine to measure displacement from Sigma-2 receptors.
# [3] = test system: Abeta oligomer-induced membrane trafficking deficits in primary hippocampal neurons; test: Membrane Trafficking/Exocytosis (MTT) assay, Abeta oligomer effect on neurons; type: cell-based, rat; details: membrane trafficking, read-out: EC50 Abeta;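 also: compound potency for inhibiting the Abeta oligomer effect on exocytosis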
# Method in brief: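 Rat E18 hippocampal neurons cultured 3 weeks received compound (100 uM to 0.001 nM), then vehicle or Abeta 1-42 oligomers (3 μM total Abeta), for 1-24 h at 37 °C. MTT was added for 1 h, and formazan vesicle exocytosis was quantified by automated imaging with DAPI toxicity check. Tukey-Kramer comparisons were made with N=4.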
# [4] = target: potassium channel hERG (Homo sapiens (Human), UniProt Q12809); test: In vitro testing for hERG inhibition; type: biochemical; details: in vitro toxicity potassium channel hERG
# Chain of potassium channel hERG (Q12809 whole entry): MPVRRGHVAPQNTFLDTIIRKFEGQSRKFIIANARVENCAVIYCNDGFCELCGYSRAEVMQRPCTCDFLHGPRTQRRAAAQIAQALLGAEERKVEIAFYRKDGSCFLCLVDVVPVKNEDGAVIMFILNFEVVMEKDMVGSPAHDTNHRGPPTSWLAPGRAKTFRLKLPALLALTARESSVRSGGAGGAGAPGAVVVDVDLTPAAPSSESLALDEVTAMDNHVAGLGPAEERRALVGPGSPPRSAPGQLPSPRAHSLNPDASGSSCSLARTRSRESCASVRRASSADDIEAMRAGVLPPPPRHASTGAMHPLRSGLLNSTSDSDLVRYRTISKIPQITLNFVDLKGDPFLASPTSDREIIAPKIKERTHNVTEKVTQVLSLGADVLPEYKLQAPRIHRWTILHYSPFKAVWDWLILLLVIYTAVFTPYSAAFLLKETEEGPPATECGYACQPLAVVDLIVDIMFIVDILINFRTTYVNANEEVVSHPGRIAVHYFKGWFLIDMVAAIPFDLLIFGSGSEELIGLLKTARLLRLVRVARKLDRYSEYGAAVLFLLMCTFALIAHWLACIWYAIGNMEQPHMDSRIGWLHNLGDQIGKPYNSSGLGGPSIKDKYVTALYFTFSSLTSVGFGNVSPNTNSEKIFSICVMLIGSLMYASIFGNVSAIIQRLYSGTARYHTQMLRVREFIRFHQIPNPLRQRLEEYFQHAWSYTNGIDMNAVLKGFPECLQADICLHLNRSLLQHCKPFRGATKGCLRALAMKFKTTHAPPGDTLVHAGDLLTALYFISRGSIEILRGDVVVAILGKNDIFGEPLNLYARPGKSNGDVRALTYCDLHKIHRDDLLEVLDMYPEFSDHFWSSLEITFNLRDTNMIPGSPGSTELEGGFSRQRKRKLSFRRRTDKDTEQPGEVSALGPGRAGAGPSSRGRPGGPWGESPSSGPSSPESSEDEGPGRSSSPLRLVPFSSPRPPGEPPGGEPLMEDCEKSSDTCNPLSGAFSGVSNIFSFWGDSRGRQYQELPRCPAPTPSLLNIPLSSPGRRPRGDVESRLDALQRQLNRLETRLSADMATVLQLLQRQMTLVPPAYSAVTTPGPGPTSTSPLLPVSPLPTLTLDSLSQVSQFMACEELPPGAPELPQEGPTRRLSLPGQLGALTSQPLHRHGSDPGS
# Experimental: In vitro testing for hERG inhibition was performed in a standard assay (See: Haverkamp W, Breithardt G, Carnm A J, Janse M J, Rosen M R, Antzelevitch C, Escande D, Franz M, Malik M, Moss A and Shah R. (2000) Eur Heat J 21 (15); 1216-31).
# [5] = log P; type: physicochemical; details: for logP: octanol/water
# Method in brief: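 Ratio of un-ionized compound concentrations between octanol and water, with aqueous pH set so the un-ionized form predominates. Value given as the log of the octanol/water ratio.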
# [6] = Mouse liver microsome (MLM) stability; type: in vitro ADME; details: microsomal stability in mouse liver microsomes (MLM)
# Experimental: A first pharmacokinetic study was performed in microsomes of mice mouse liver microsomes, MLM).
# Microsomal stability experiments and plasma stability experiments were performed to determine metabolic and hepatic stability of candidate compounds.
# [7] = Rattus norvegicus, Hippocampal neuron
# Chain of Sigma-1 receptors on Jurkat cell membranes (Q99720 whole entry): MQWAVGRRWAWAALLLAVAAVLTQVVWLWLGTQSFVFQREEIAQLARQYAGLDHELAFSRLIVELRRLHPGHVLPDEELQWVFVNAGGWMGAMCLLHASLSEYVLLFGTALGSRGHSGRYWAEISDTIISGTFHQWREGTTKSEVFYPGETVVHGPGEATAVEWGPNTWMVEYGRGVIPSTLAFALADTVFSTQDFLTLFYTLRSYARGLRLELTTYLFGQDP
Compound,pKi [1],pKi [2],pEC50 [3],pIC50 [4],log P [5],MLM T1/2 [6],"pEC50 [3, 7]",logP [5]
CC(CC(C)(C)c1ccc(C(F)(F)F)cc1)N1CCC(CCO)CC1 (centres unmarked) [Compound 2],9.05,9.22,< 4.82,5.04,4.67,–,–,–
CC(C)=C[C@@H](CC(C)(C)c1ccc(C(F)(F)F)cc1)N1CCC[C@@H]1CO [Compound 83],6.00,6.00,5.42,4.85,5.31,–,–,–
CC(C)=CC(CC(C)(C)c1ccc(C)cc1)N1CCC2(CC1)COC2 (centres unmarked) [Compound 107],–,–,4.70,–,5.21,3.5 min,–,–
COCCCC1CCN(CCC(C)(C)c2ccc(C(F)(F)F)cc2)CC1 [Compound 4],9.30,9.10,–,5.66,5.35,–,–,–
CC(C)=CC(CC(C)(C)c1ccc(C)cc1)N(C)CC1CCOCC1 (centres unmarked) [Compound 112],–,–,–,–,5.59,4.9 min,–,–
CC(CC(C)(C)c1ccc(Cl)cc1)N1CCC(O)CC1 (centres unmarked) [Compound 20],9.00,8.21,–,5.77,3.57,–,–,–
CC(CC(C)(C)c1ccc(F)cc1)N1CCC(CO)CC1 (centres unmarked) [Compound 19],8.66,8.22,> 6.60,4.43,3.57,–,–,–
CC(C)=CC(COc1ccc(F)cc1)N1CCC(O)CC1 (centres unmarked) [Compound 18],8.59,8.25,6.60,4.54,2.72,–,–,–
CC(C)=CC(CCc1ccc(F)cc1)N1CCC(C2CCOCC2)CC1 (centres unmarked) [Compound 65],5.92,6.57,–,5.64,4.13,–,–,–
COC1CCN(CCC(C)(C)c2ccc(Cl)cc2)CC1 [Compound 10],9.15,8.68,5.90,4.96,3.8,–,–,–
CC(CC(C)(C)c1ccc(Cl)cc1)N1CCC(CO)CC1 (centres unmarked) [Compound 16],9.10,8.35,–,6.08,4.03,–,–,–
CC(=O)N1CCN(C(C=C(C)C)CC(C)(C)c2ccc(Cl)cc2)CC1 (centres unmarked) [Compound 75],6.16,6.16,6.60,4.82,4.33,–,–,–
CCOC1CCN(C(C=C(C)C)CC(C)(C)c2ccc(F)cc2)CC1 (centres unmarked) [Compound 59],6.22,6.80,6.60,4.14,5.12,–,–,–
CC(C)(CCN1CCC(O)CC1)c1ccc(C(F)(F)F)cc1 [Example 17],8.89,8.29,–,4.96,–,–,5.65,3.43
CC(C)(CCN1CCC(O)CC1)c1ccc(Cl)cc1 [Compound 8],9.40,8.80,6.60,4.85,3.16,–,–,–
CC(CC(C)(C)c1ccc(Cl)cc1)N1CCC(C)(O)CC1 (centres unmarked) [Compound 22],9.00,8.15,–,5.77,3.85,–,–,–
COC[C@H]1CCCN1C(C)CC(C)(C)c1ccc(Cl)cc1 (some centres unmarked) [Compound 84],6.00,6.00,6.60,5.41,4.67,–,–,–
CC(=O)N1CCN(C(C=C(C)C)CC(C)(C)c2ccc(F)cc2)CC1 (centres unmarked) [Compound 81],6.80,5.60,–,4.49,3.87,–,–,–
CC1(O)CCN(CCC(C)(C)c2ccc(C(F)(F)F)cc2)CC1 [Example 14],8.72,8.52,–,4.74,–,–,5.43,3.71
CC(C)=CC(CCc1ccc(C)cc1)N1CCC(C2CCOCC2)CC1 (centres unmarked) [Compound 64],6.27,6.57,–,4.96,3.52,–,–,–
COC1CCN(C(C)CC(C)(C)c2ccc(C(F)(F)F)cc2)CC1 (centres unmarked) [Compound 6],9.52,9.00,< 4.82,6.12,4.49,–,–,–
CC(C)=CC(CC(C)(C)c1ccc(F)cc1)N1CCN(C(=O)OC(C)(C)C)CC1 (centres unmarked) [Compound 47],5.72,7.05,–,4.85,5.55,–,–,–
CCC(C)(O)CCNC(C)CC(C)(C)c1ccc(C(F)(F)F)cc1 (centres unmarked) [Compound 12],9.00,8.57,–,6.01,4.13,–,–,–
COC1CCN(C(C=C(C)C)CC(C)(C)c2ccc(C(F)(F)F)cc2)CC1 (centres unmarked) [Compound 39],7.60,7.37,6.22,5.09,5.49,–,–,–
CC(C)=CC(CCc1ccc(C)cc1)N1CCC(C2CCOCC2)CC1 (centres unmarked) [Compound 114],–,–,–,–,5.63,1.8 min,–,–
COCCOCCC1CCN(C(C=C(C)C)CC(C)(C)c2ccc(C(F)(F)F)cc2)CC1 (centres unmarked) [Compound 40],6.77,7.36,6.08,5.02,6.28,–,–,–
CC(C)(CCN1CCC(C2CCOCC2)CC1)c1ccc(C(F)(F)F)cc1 [Compound 1],9.15,9.70,–,6.13,5.16,–,–,–
CC(C)=CC(CC(C)(C)c1ccc(C(F)(F)F)cc1)N1CCC(OC(C)C)CC1 (centres unmarked) [Compound 44],6.59,7.10,5.85,5.04,6.27,–,–,–
